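Step 1: Grow cells in 96-well plates. Step 2: Expose to compound for 48 hours at 5 concentrations. Step 3: Interpolate endpoints linearly; if unreached, use highest concentration. The concentration for full growth arrest is given as TGI.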 *1 amine or outer side, *2 acyl side, *3 side chain or, on linkers, in order; H or OH if unused. Where a SMILES comes first, the peptide text is derived from it. Bridges are numbered along the chain shown (N, C = ends). [ ]: non-standard residue; d: D form. The star is where a group is joined. ξ: configuration not given here. X34 = O=C(C(CCCCNO[*:3])N[*:1])[*:2]; Fmoc = O=C(OCC1c2ccccc2-c2ccccc21)*; ξLac(3-iPr) = CC(C)CC(O)C(=O)O; NMeV = CN[CH](C(=O)O)C(C)C; NMeA = CN[CH](C)C(=O)O; βAla = NCCC(=O)O
Assays:
Assay in all cases: DTP human tumour cell line panel, 48 h
[1] = system: BT-549 breast
[2] = system: KM12 colon
[3] = system: M14 melanoma
[4] = system: UACC-257 melanoma
[5] = system: UO-31 renal
[6] = system: SF-268 CNS

Structure (SMILES)	TGI [1] [µM]	TGI [2] [µM]	TGI [3] [µM]	TGI [4] [µM]	TGI [5] [µM]	TGI [6] [µM]
CCNC12CCC(C1)C(C)(C)C2=O (centres undefined)	> 100	> 100	> 100	> 100	> 100	–
CC1(C)N=C(N)N=C(N)N1c1cccc(C(=O)Nc2ccc(S(=O)(=O)F)cc2)c1	> 100	> 100	> 100	> 100	> 100	> 100
O=C1OC(C2(O)OC(=O)c3ccccc32)c2ccccc21 (centres undefined)	> 100	> 100	> 100	> 100	> 100	> 100
CCN(CCCl)c1cc(CN(C)C)cc(NC(=O)C23CCC(C(=O)Nc4cc(CN(C)C)cc(N(CC)CCCl)c4)(CC2)CC3)c1	–	3.17	14.8	15.5	30.9	16
O=C(NNC(=S)NCc1ccccc1)c1csc(NC(=S)NC2CCCCC2)n1	> 100	> 100	> 100	43	58.2	> 100
CC(NC(=O)c1ccc(NP(=O)(OCc2ccc([N+](=O)[O-])o2)N(C)CCCCCl)cc1)c1ccc(OCC2CCCCC2)c(C(N)=O)c1 (centres undefined)	–	32	–	26.6	> 100	36.1
N#CC(C#N)N=Nc1ccc(-c2nc3ccccc3o2)cc1	31.8	50.5	31.2	17.8	26	> 100
Oc1cc(N2CCCC2)ccc1/C=N/N1C(=S)N(c2ccccc2)C(=Nc2ccccc2)C1=Nc1ccccc1	> 100	> 100	> 100	> 100	> 100	> 100
COc1ccc(C2=C(N)c3ncccc3C2=O)cc1	> 100	> 100	> 100	> 10	> 100	> 100
COc1cccc(Nc2nc(N)nc(N)c2N)c1	> 100	> 100	> 100	> 100	> 100	> 100
c1ccc(C(=NCCC2CNc3ccccc32)c2ccccc2)cc1 (centres undefined)	> 100	> 100	> 100	> 100	> 100	–
Cc1ccnc2[nH]c(-c3ccc(F)cc3)cc(=O)c12	> 100	> 100	> 46.4	> 100	> 100	> 100
CN(C)c1ccc(C2CC(c3ccc4ccccc4c3O)=NN2c2ccc([N+](=O)[O-])cc2[N+](=O)[O-])cc1 (centres undefined)	> 100	> 100	> 100	> 100	> 100	> 100
CC(=O)OCC1OC(O[C@@H]2C[C@H]3C(C)(C)[C@@H](OC(C)=O)CC[C@]3(C)[C@H]3CC[C@]45C[C@]4(CC[C@H]5[C@@H](C)C[C@@H](O)[C@H](O)C(C)(C)F)[C@@]32C)C(O)C(O)C1O (some centres undefined)	3.4	> 100	3.28	> 100	–	3.05
CSc1nc(C)c(CCOC(C)=O)c(Cl)n1	> 100	> 100	> 100	> 100	> 100	> 100
O=C1/C(=C/c2ccc(Oc3ccccc3)cc2)N=C(c2ccccc2)N1c1ccc(S(=O)(=O)Nc2nccs2)cc1	–	53.7	72.3	92.5	78.2	> 100
CCOC(=O)c1cc(Br)c(-c2cc(C)no2)[nH]1	> 100	24.7	> 100	> 100	> 100	> 100
O=S1(=O)OCCOS(=O)(=O)C1Cc1cccc2ccccc12	–	–	54.9	34.2	48.8	57.8
COc1nc2c(c(=O)n1C)N=C(c1ccccc1)[C@H](C(CC(=O)c1ccccc1)c1ccccc1)C(c1ccccc1)N2 (some centres undefined)	> 100	> 100	> 100	> 100	> 100	–
Nc1ccc(C23CC4CC(C2)CC(c2ccc(N)cc2)(C4)C3)cc1	> 100	> 100	85.5	> 100	> 100	> 100
COc1cc2c(cc1OC)CC1c3cc(OC)c(OC)cc3CCN1CC2 (centres undefined)	> 100	> 100	> 100	> 100	> 100	> 100

Structure (SMILES)	TGI [1] [µM]	TGI [2] [µM]	TGI [3] [µM]	TGI [4] [µM]	TGI [5] [µM]	TGI [6] [µM]
CSc1nc2c(c(N3CCOCC3)n1)C(O)n1c(nc3ccccc31)S2 (centres undefined)	> 100	> 100	> 100	> 100	> 100	> 100
COc1cc2c(cc1OC)C(=O)C1(C2)[C@H](c2ccccc2)C2C(=O)c3cc(OC)c(OC)cc3C2[C@H]1c1ccccc1 (some centres undefined)	> 100	> 100	> 100	> 100	> 100	> 100
COc1cc2c(cc1O)C1(Cc3ccc4c(c3C1=O)OCO4)N(C)CC2 (centres undefined)	> 100	> 100	> 100	> 100	> 100	> 100
CCCCCCCCCCCCCCCCOP(=O)(O)OCC(NC(C)=O)C(=O)O (centres undefined)	34	–	> 100	> 100	> 100	95.9
CC1CN(c2cc3c(cc2F)c(=O)c(C(=O)O)cn3-c2ccc(F)cn2)CC(C)N1 (centres undefined)	> 100	> 100	> 100	> 100	> 100	> 100
CC(C)Oc1cccc(N2C(=NCCc3c[nH]c4ccccc34)Nc3ccncc3S2(=O)=O)c1	> 100	> 100	> 100	> 100	> 100	> 100
N=CN=CC(=S)O[C@@H]1C(=O)N2CCC[C@@]23CCCC[C@@H]13	–	> 12.5	> 12.5	> 12.5	> 12.5	> 12.5
C[N+](C)(C)c1cc2c(nn1)Nc1ccccc1S2	> 100	> 100	40	62.6	41.9	> 100
CC1(c2ccc(Cl)s2)CC(c2ccc(Cl)s2)=C(C#N)C(=C(C#N)C#N)N1 (centres undefined)	45.7	36	36.4	43.4	34.5	48.9
O=C1c2c(ccc3c2CCC3)CC12Cc1ccccc1C2	–	51.4	> 100	57.4	59.7	> 100
COC1(OC)C=CC2C1C1C=CC2C1(OC)OC (centres undefined)	–	> 100	> 100	> 100	> 100	> 100
CC(=O)n1cc(OP(=O)(Oc2ccccc2)Oc2ccccc2)c2ccccc21	> 100	> 100	52.1	77.2	> 100	81.3
CCS(=O)(=O)CCn1c(=O)c2c(ncn2C)n(C)c1=O	> 100	> 100	> 100	> 100	> 100	> 100
ON[C@H]1C[C@@H](n2cnc3c(NC4CC4)ncnc32)[C@H](O)[C@@H]1O	> 100	> 100	> 100	> 100	> 100	> 100
O=c1cc(N=Nc2ccc(Cl)c(Cl)c2)[nH]c(=O)[nH]1	4.77	6.15	4.08	6.15	4.93	7.57
NC(=O)CNC(=O)C1CCCN1C(=O)C1CCCCNOC(=O)CCC(NC(=O)OCC2c3ccccc3-c3ccccc32)C(=O)NC(Cc2c[nH]c3ccccc23)C(=O)N1 (centres undefined) (Fmoc-EW[X34]PG-NH2; ester 1-3; configuration not given here)	> 100	> 100	> 100	> 100	> 100	> 100
CC(C)(C)OC(=O)NCCNCCNc1ccccc1	> 100	> 100	> 100	> 100	> 100	–
COc1ccc(N=NC(=Nc2ccc(Cl)cc2)c2ccc(N(CCC#N)CCC#N)cc2)cc1	87.3	> 100	> 100	64.7	> 100	> 100
O=C1C=CC(=O)c2c(O)c(Br)c(Br)c(O)c21	27.1	16.7	3.79	8.25	6.65	38.3
COC(=O)[C@H]1COC(=O)N1	> 100	> 100	> 100	> 100	> 100	> 100
O=c1[nH]c(=O)n(C2CC(O)C(CO)O2)c2nc3ccc4cc5ccccc5cc4c3nc12 (centres undefined)	> 100	> 100	> 100	> 100	> 100	> 100

Structure (SMILES)	TGI [1] [µM]	TGI [2] [µM]	TGI [3] [µM]	TGI [4] [µM]	TGI [5] [µM]	TGI [6] [µM]
O=C(O)CCC(N=NNc1ccc(-c2nc3ccccc3[nH]2)cc1)C(=O)O (centres undefined)	70.6	> 100	> 100	> 100	> 100	–
O=C(NC(Cc1cnc[nH]1)C(=O)N1CCCC1)C1CCCC1 (centres undefined)	> 100	> 100	> 100	–	> 100	–
ONC1=Nc2ccccc2C(=S)N2CSCC12 (centres undefined)	> 100	> 100	> 100	> 100	> 100	> 100
COC(=O)C1Cc2ccc3c(c2C1=O)CCCC3 (centres undefined)	> 100	> 100	> 100	> 100	> 100	> 100
CCC(C)C1NC(=O)C2CCCN2C(=O)C(CC(C)C)OC(=O)CCNC(=O)C(C)N(C)C(=O)C(C(C)C)N(C)C1=O (centres undefined) (cyclo([ξLac(3-iPr)]PI[NMeV][NMeA][βAla]); configuration not given here)	> 100	45.5	6.49	41.8	> 42	80.9
CCN(CC)C(=S)SC(C(=O)Nc1nnc(-c2ccccc2)o1)c1ccccc1 (centres undefined)	35	62.7	42	74.5	23.9	–
Cn1c2ccccc2c(=O)c2cccc(C(=O)NCC(=O)O)c21	> 100	> 100	> 100	> 100	> 100	> 100
CCOC(OCC)N1C(=O)C2(C(OCC)OCC)CC3C(OC(=O)N3N)c3cccc1c32 (centres undefined)	> 100	> 100	–	> 100	> 100	> 100
O=S(=O)(SC1=NCCN1)c1cccc2ccccc12	76	45.1	> 100	> 100	> 100	–
Oc1c(Br)cc(/C=C/c2cccc(/C=C/c3cc(Br)c(O)c(Br)c3)n2)cc1Br	> 100	25.2	34.9	37.2	28.4	32.9
CC(C)(C)OC(=O)NCCCC(=O)NC1(c2cc3ccccc3s2)CCCCC1	32.7	38.9	40.1	31.9	14.8	39.7
OC(c1ccc2c(c1)OCO2)c1ccc2c(c1)OCO2	> 100	> 100	> 100	> 100	> 100	> 100
O=C1NC(N2CCCCC2)=N/C1=C\c1ccc(Cl)cc1	> 100	> 100	> 100	> 100	> 100	> 100
CN(C)CCNC(=O)Cn1cnc2cccc([N+](=O)[O-])c2c1=O	–	> 100	> 100	> 100	> 100	> 100
O=c1c(-c2ccccc2F)coc2cc(F)ccc12	> 100	> 100	> 100	> 100	> 100	> 100
C#Cc1cc(Br)c(OC(=O)C(C)(C)C)c(-c2cc(C#C)cc(Br)c2OC(=O)C(C)(C)C)c1	> 100	> 100	> 100	> 100	–	> 100
CN(C(=O)C1=CCC2(CC1)OCCO2)c1ccccc1I	–	> 100	> 100	> 100	> 100	–
CN(C)c1nncc2n[nH]nc12	> 100	> 100	> 100	> 100	> 100	–
Cc1ccc(OCC2OC(n3cnc4c(Cl)nc(Cl)nc43)CC2Oc2ccc(C)cc2)cc1 (centres undefined)	4.3	3.09	3.99	6.59	–	4.19
